Test results from publication PMC6406907, “A H2AX–CARP-1 Interaction Regulates Apoptosis Signaling Following DNA Damage” (Cancers, 2019).

Assays:
[1] = system: CARP-1, phospho-JNK1/2, phospho-H2AX; experiment: Western blot of CARP-1, phospho-JNK1/2, γH2AX in UOK 262; type: cell-based, human; details: 10 μM, UOK 262, WB
Procedure: Logarithmically growing cells were either untreated or treated with different agents for various time periods. The cells were lysed to prepare protein extracts. IP was carried out by incubating approximately 1 mg of the protein lysate with appropriate antibodies. The immunoprecipitates were then analyzed by SDS-PAGE, followed by WB with respective, interacting protein. For Gst-pulldown, Gst-H2AX or various His-TAT-HA-tagged CARP-1 peptides were generated in Escherichia coli (E. coli) BL21 cells essentially as described by us previously. Briefly, the competent E. coli BL-21 (DE3) pLysS cells were transformed separately with various recombinant pGEX-4T-1 or pTAT-HA constructs. The transformed cells were then subjected to selection by combined presence of ampicillin and chloramphenicol; various isolates for each transformation were obtained and bacterial lysates were characterized for expression of fusion peptides. Cells from each isolate were grown in 4 mL of LB medium containing ampicillin only until the optical density (OD)600 reached 0.4–0.8. […]
Here, we utilized human TNBC MDA-MB-468 and human cervical cancer HeLa cells to conduct an MTT-based dose-response analysis using Adriamycin and CFM compounds. […] The cell lysates from the control, untreated, and treated cells were analyzed by WB for expression of CARP-1, phospho-JNK1/2, phospho-H2AX, and poly ADP ribose polymerase (PARP) proteins. […]

CARP-1 and γH2AX = experiment: WB/IF of CARP-1 and γH2AX in HCC827; type: cell-based, human; details: for CARP-1 and γH2AX increase after knock-down of CARP-1: HCC827, CARP-1 knock-down; for CARP-1 levels and γH2AX: HCC827, WB / IF
Procedure: Logarithmically growing cells were either untreated or treated with different agents for various time periods. The cells were lysed to prepare protein extracts. IP was carried out by incubating approximately 1 mg of the protein lysate with appropriate antibodies. The immunoprecipitates were then analyzed by SDS-PAGE, followed by WB with respective, interacting protein. For Gst-pulldown, Gst-H2AX or various His-TAT-HA-tagged CARP-1 peptides were generated in Escherichia coli (E. coli) BL21 cells essentially as described by us previously. Briefly, the competent E. coli BL-21 (DE3) pLysS cells were transformed separately with various recombinant pGEX-4T-1 or pTAT-HA constructs. The transformed cells were then subjected to selection by combined presence of ampicillin and chloramphenicol; various isolates for each transformation were obtained and bacterial lysates were characterized for expression of fusion peptides. Cells from each isolate were grown in 4 mL of LB medium containing ampicillin only until the optical density (OD)600 reached 0.4–0.8. Expression of fusion peptides was induced over 2–4 h incubation periods after Isopropyl β-D-1-thiogalactopyranoside (IPTG) addition. The cells were harvested, and pellets were stored at −80 °C overnight. The cell pellets were then lysed in 100–400 μL of bacterial protein extraction reagent (BPER) buffer (Thermo Scientific, Waltham, MA, USA, Cat# 78243) containing 2 μL/mL of 10 units/μL DNAse I (Boehringer Mannheim, Fremont, CA, USA, Cat # 776–785), and supernatant checked for expression of respective fusion peptides by WB. Following confirmation of expression, 5–20 μL of lysate expressing Gst fusion protein was first incubated with 20 μL of precleared glutathione sepharose in a final volume of 100 μL at 4 °C for 2 h with constant rotation. The sepharose beads were spun at 800× g for 2 min, and the pellet was washed 2–4 times with 100–200 μL of RIPA buffer (20 mM Tris-HCl (pH 7.5), 150 mM NaCl, 1 mM Na2EDTA, 1 mM EGTA, 1% NP-40, 1% sodium deoxycholate, 2.5 mM sodium pyrophosphate, 1 mM β-glycerophosphate, 1 mM Na3VO4, 1 µg/mL leupeptin) with 0.5 M NaCl. The beads were spun again as above, and mixed with 5–20 μL of E. coli lysate expressing His-TAT-HA CARP-1 peptides. The reactions were incubated further at 4 °C for 2 h with constant rotation. The peptide-bound sepharose beads were pelleted and washed with 100–200 μL of RIPA buffer with 0.1 M NaCl for 2–4 washes. In some cases, additional washes with 0.05 M NaCl buffer were carried out. After the final wash, the sepharose–protein complexes were spun, and then re-suspended in SDS loading buffer for electrophoresis on 12–15% SDS PAGE, followed by WB with appropriate antibodies.
Cells were plated onto chamber slides one day before treatment. […]

SMILES | expression of CARP-1, phospho-JNK1/2, phospho-H2AX [1] | CARP-1 and γH2AX increase after knock-down of CARP-1 (CARP-1 and γH2AX) | CARP-1 levels and γH2AX (CARP-1 and γH2AX)
COc1cccc2c1C(=O)c1c(O)c3c(c(O)c1C2=O)C[C@@](O)(C(=O)CO)C[C@@H]3O[C@H]1C[C@H](N)[C@H](O)[C@H](C)O1 [Adriamycin, doxorubicin, reference compound] | stimulated expression of CARP-1, phospho-JNK1/2, and phospho-H2AX in a time-dependent manner | abrogated CARP-1 and γH2AX increase | robust increase in CARP-1 levels and γH2AX
O=C1N(Cc2ccccc2Cl)c2ccccc2C12NN=C(c1cccc(Cl)c1)S2 (stereo not drawn) [CFM-4.16] | stimulated expression of CARP-1, phospho-JNK1/2, and phospho-H2AX in a time-dependent manner | abrogated CARP-1 and γH2AX increase | robust increase in CARP-1 levels and γH2AX
